According to PubChem BioAssay AID624404 (Broad Institute, 2012):
Inconclusive results are not listed. The source made the active and inactive calls.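 The calls were made as follows: active = luciferase signal rise whose fitted curve crosses a set activity limit at or below the top valid tested dose; inconclusive = flat fit with 30 to 70% rise, or poor fit; inactive = signal falling, flat within 30%, or crossing above top dose.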

System: D54 LucT luciferase reporter counterscreen, luminescence, 24 h
Assay: reporter signal increase, D54 LucT cells – cell-based, luminescence, cherry pick, counter-screen for N-linked glycosylation inhibitor project, dose response (AID 624404)

Structure (SMILES) | AC35
NC(=O)CC(NC(=O)c1ccc(Br)cc1)c1ccc(N2CCCCCC2)c([N+](=O)[O-])c1 (configuration not stated) | 1090 nM
c1ccc2c(c1)C1=NCCN1c1ccccc1-2 | 6250 nM
CCOc1cc(C(=O)Nc2ccc(N3CCOCC3)cc2)cc(Br)c1OC | 3660 nM
CCOc1ccc2[nH]c(C(=O)N/N=C/c3cc(OC)c(OC)c(OC)c3)cc2c1 | 3270 nM
Cn1c(=O)cc(OCCCC(=O)NC2CCCC2)c2ccccc21 | 3240 nM
CCOc1ccc(/C=C2\SC(N3CCCCC3)=NC2=O)cc1 | 5570 nM
O=C(c1ccccc1-c1ccccc1)N1CCN(c2ccccn2)CC1 | 2040 nM
CC(C)CCNC(=O)CCCOc1cc(=O)n(C)c2ccccc12 | 2260 nM
Cc1ccc(C=Nc2ccccc2C(N)=O)cc1 | 2750 nM
CC(C)n1cc(NC(=O)c2cc(-c3ccccc3)on2)cn1 | 568 nM
Cc1cc(-c2nnc3n2N=C(c2ccc(-c4ccccc4)cc2)CS3)n[nH]1 | 1260 nM
Cc1ccnc2nc(C(=O)Nc3cc(Cl)ccc3N3CCOCC3)nn12 | 155 nM
O=C(COC(=O)c1cccc(Br)c1)Nc1cccc2c1C(=O)c1ccccc1C2=O | 1150 nM
OC1CCCN(Cc2ccc3ccc4cccc5ccc2c3c45)C1 (configuration not stated) | 890 nM
OCCCN=c1cc(-c2ccccc2)oc2ccc(Cl)cc12 | 971 nM
c1ccc(CNc2ncnc3c2cnn3-c2ccccc2)cc1 | 719 nM
COc1cc(CN2CCc3ccccc3C2)ccc1O | 2000 nM
c1ccc2c(-c3nc4ccccc4[nH]3)cccc2c1 | 911 nM
Cc1cc2nnc(SCC(=O)NCc3ccco3)n2c2ccccc12 | 16600 nM
CCn1c2ccccc2c2cc(Nc3cc(C)nc4ncnn34)ccc21 | 420 nM
COc1ccc2c(c1)[C@H]1[C@H](CO2)[C@H](c2ccccc2)[C@]2(C)C(=O)Nc3cc(F)c(F)cc3C(=O)N12 | 469 nM
CN(C)C(CNC(=O)CSc1nc2sc3c(c2c(=O)n1C)CCCC3)c1ccccc1 (configuration not stated) | 682 nM

Structure (SMILES) | AC35
COC(=O)c1c(NC(=O)CN2C(=O)NC3(CCC(C)CC3)C2=O)sc2c1CCC2 (configuration not stated) | 592 nM
C[C@@]12C(=O)Nc3ccc(F)cc3C(=O)N1[C@H]1c3cc(Cl)ccc3OC[C@@H]1[C@@H]2c1ccccc1 | 1820 nM
O=C(C=Cc1cccc(O)c1)c1ccccc1O | 4500 nM
Cc1ccc(C(=O)Nc2ccccc2C(=O)N2CC(C)OC(C)C2)cc1 (configuration not stated) | 625 nM
CC(=O)Nc1ccc2cc3ccc(NC(C)=O)cc3nc2c1 | 838 nM
COc1ccccc1-c1cc(NC=O)c2ncc(-c3cccc(C(=O)N(C)C)c3)n2c1 | 48.3 nM
CC(=O)Nc1ccc(-c2ccnc3c2CC(C(=O)NCc2cccc(Cl)c2)O3)cc1 (configuration not stated) | 57.6 nM
COc1ccc(/C=C2\CC/C(=C\c3ccc(OC)c(OC)c3)C2=O)cc1OC | 155 nM
CCC(Cc1ccccc1)NC(=O)c1ccc2nc(N3CCOCC3)sc2c1 (configuration not stated) | 480 nM
CC(C)c1c(C(=O)Nc2ccccc2)c(-c2ccccc2)c(-c2ccc(F)cc2)n1CC[C@@H](O)C[C@@H](O)CC(=O)O | 1260 nM
Cc1ccc2nc(-c3ccncc3)cc(C(=O)Nc3ccncc3)c2c1 | 64.6 nM
CCc1ccc(N2C(=O)NC(=O)/C(=C\C=C\c3ccco3)C2=O)cc1 | 1740 nM
O=C(N/N=C/c1cccnc1)c1cc(-c2ccccc2OCc2ccccc2)n[nH]1 | 2460 nM
COc1ccc(/C=C/C(=O)c2ccc(Cl)s2)cc1O | 6020 nM
COc1cc2c(cc1OC)C(=O)N1[C@H]3c4cc(C)ccc4OC[C@@H]3[C@H](c3ccccc3)[C@]1(C)C(=O)N2 | 131 nM
Cc1cccn2c(=O)c3cc(C(=O)NC4CCCCC4)n(C)c3nc12 | 7540 nM
CCOC(=O)c1[nH]c(C)c(C(=O)Nc2cc(OC)ccc2OC)c1C | 345 nM
Cc1ccc(S(=O)(=O)NC2=C(N3CCN(Cc4ccccc4)CC3)C(=O)c3ccccc3C2=O)cc1 | 2540 nM
COc1cc(-c2nc(-c3ccccc3)c(-c3cccs3)[nH]2)cc(OC)c1OC | 7050 nM
O=C(CCN1C(=O)/C(=C\c2ccccc2)SC1=S)N1CCCCC1 | 6190 nM
COc1ccc(/C=C2\SC(=O)N(CCNC(=O)C3=COCCO3)C2=O)cc1 | 854 nM
COc1ccc(Nc2nc(N)c(C(=O)c3ccc(OC)cc3)s2)cc1 | 148 nM

Structure (SMILES) | AC35
Cc1ccc(S(=O)(=O)N(C)C[C@H]2Oc3ccc(NC(=O)C4CCCCC4)cc3C(=O)N([C@H](C)CO)C[C@H]2C)cc1 | 555 nM
CCc1ccc(/C=N/NC(=O)c2nnn(-c3nonc3N)c2C(C)C)cc1 | 2630 nM
CCNC(=O)COc1ccc(/C=C2\COc3ccccc3C2=O)cc1OC | 4800 nM
N#Cc1ccc(-c2cccs2)nc1SCc1cccnc1 | 848 nM
COC(=O)[C@@H]1C[C@H]1[C@@H](NP(=O)(c1ccccc1)c1ccccc1)c1ccccc1 | 3100 nM
COc1cccc(-c2cnc3c(NC(C)=O)cc(-c4cc(F)ccc4OC)cn23)c1 | 4270 nM
Cc1ccc(-c2cc(C(=O)Nc3ccncc3)c3ccccc3n2)cc1 | 4300 nM
Cc1nnc2ccc(-c3ccc(NC(=O)c4ccco4)cc3)nn12 | 644 nM
Cc1ccc(C(=O)c2coc3c2C(=O)C(=O)c2ccccc2-3)cc1 | 4050 nM
COc1ccc(NC2=C(C)C(=O)CC2)cc1 | 380 nM
O=C(Nc1cccc(-c2cn3ccccc3n2)c1)c1cccc(Cl)c1 | 2150 nM
C[C@H](CO)N1C[C@H](C)[C@@H](CN(C)S(=O)(=O)c2cccs2)Oc2c(NC(=O)Cc3ccccc3)cccc2C1=O | 2960 nM
CC(=O)OC1CC[C@]2(C#N)[C@H]3CC[C@]4(C)[C@H](C5C=CC(=O)O5)CCC4(O)C3CCC2(O)C1 (some centres not stated) | 2850 nM
COc1ccc2c(c1)[C@H]1[C@H](CO2)[C@H](c2ccccc2)[C@]2(C)C(=O)Nc3cc(C)ccc3C(=O)N12 | 66.8 nM
O=C(NCc1ccccc1Br)c1cccc2c1C(=O)c1ccc(-c3ccc(OC(F)(F)F)cc3)cc1S2(=O)=O | 408 nM
O=C(N/N=C/c1ccccc1)c1sccc1OCc1ccc(F)cc1 | 3060 nM
COc1cccc(OCc2nc3ncc(Br)cc3[nH]2)c1 | 2480 nM
COc1ccc(OC)c(Nc2ncnc3c2cnn3-c2cccc(C)c2)c1 | 4590 nM
COc1ccc(C(=O)CSc2nnc(-c3cc4ccccc4cc3O)n2Cc2ccco2)cc1 | 1800 nM
CC1(C)Cc2c(c(N3CCOCC3)nc3snc(N)c23)CO1 | 1200 nM
COc1cc(C(=O)NC2CCN(C)CC2)ccc1Nc1ncc2c(n1)N(C1CCCCC1)CCC(=O)N2C | 30.5 nM
CN(Cc1ccccc1)c1nc2c(c(=O)n(C)c(=O)n2C)n1CCCc1ccccc1 | 893 nM

Structure (SMILES) | AC35
Cc1ccnc(NC(=O)C(Cc2ccccc2)NC(=O)c2ccccc2)c1 (configuration not stated) | 335 nM
Cc1ccc2nc(-c3ccc(SCC(=O)Nc4nnc(C)s4)nc3)[nH]c2c1 | 22.4 nM
Cc1ccc(N=Nc2c(N)nn(-c3ccccc3)c2N)cc1 | 56.1 nM
CCn1c(=O)c2cc(C(=O)NCCCOC)sc2c2ccccc21 | 177 nM
O=C1Cc2c(-c3ccccc3)cc(-c3cccc(Cl)c3)nc2-c2ccccc2N1 | 5370 nM
Cc1cnc(NC(=O)C2CC(=O)N(c3cccc(Cl)c3)C2)s1 (configuration not stated) | 1600 nM
CCOC(=O)N1CCC(NC(=O)c2ccc3c(c2)N=C(C)c2c(C)ccc(C)c2S3)CC1 | 940 nM
COc1ccc(-c2cc3ccccc3oc2=O)cc1NC(=O)c1ccc([N+](=O)[O-])o1 | 837 nM
CCc1nn2c(NCCCO)cc(C)nc2c1-c1ccc(F)cc1 | 184 nM
COc1cccc(C(NC(C)=O)c2nc(-c3ccccc3C)cs2)c1 (configuration not stated) | 678 nM
COc1ccc2c(c1)OC[C@H]1[C@H]2N2C(=O)c3ccc(C)cc3NC(=O)[C@@]2(C)[C@H]1c1ccccc1 | 658 nM
COc1cc2c(cc1OC)C(=O)N1[C@H]3c4ccccc4OC[C@@H]3[C@H](c3ccccc3)[C@]1(C)C(=O)N2 | 196 nM
Cn1c(=O)n(C)c2cc(NS(=O)(=O)c3ccc4c(c3)CCCC4)ccc21 | 416 nM
Cc1noc(C)c1-c1ccc(C(=O)NCc2cccnc2)c2occc12 | 297 nM
C[C@@]12C(=O)Nc3cc(Cl)ccc3C(=O)N1[C@H]1c3ccccc3OC[C@@H]1[C@@H]2c1ccccc1 | 282 nM
COc1ccccc1NC(=O)/C=C/c1ccc2c(c1)OCO2 | 190 nM
Cc1cc(=O)n2c3c(c4c(cc13)c(CN(C)C)cc(=O)n4C)OC2 | 31.5 nM
COc1cc(C(=O)OCCCN2CCCN(CCCOC(=O)c3cc(OC)c(OC)c(OC)c3)CC2)cc(OC)c1OC | 2190 nM
OCC1OC(n2cnc3c(SCc4ccccc4)ncnc32)C(O)C1O (configuration not stated) | 733 nM
Cc1ccc(C(=O)N2CCC(C(=O)Nc3cccc([N+](=O)[O-])c3)CC2)cc1 | 1700 nM
c1ccc(-c2cc(-c3nnc4n3N=C(c3ccc5ccccc5c3)CS4)[nH]n2)cc1 | 205 nM
O=C(Nc1ncccc1O)c1ccc(S(=O)(=O)Nc2ccccc2)cc1 | 2190 nM

Structure (SMILES) | AC35
C(=C\c1nccc2c1[nH]c1ccccc12)/c1ccccc1 | 7.01 nM
CC(Nc1nc(-c2cccnc2)nc2ccccc12)c1ccccc1 (configuration not stated) | 1050 nM
COc1ccc(/C=C/C(=O)c2ccccc2)cc1COc1ccccc1F | > 19500 nM (inactive)
COc1cc(C(=O)NCC(=O)NCCN2C(=O)S/C(=C\c3ccccc3Cl)C2=O)cc(OC)c1OC | 1150 nM
Cc1ccc(C)n1-c1ccc(C(=O)/C=C/N(C)C)cc1 | 1050 nM
COc1cc(N=Nc2cccc(S(N)(=O)=O)c2)c2ccccc2c1N | 1660 nM
O=C(CNC(=O)c1ccc(Br)o1)Nc1cccc(-c2cnc3ccccc3n2)c1 | 3530 nM
Cc1cc(C)nc(/N=C(\N)Nc2ccc(CC(=O)OC(C)C)cc2)n1 | 1680 nM
C=CCOc1ccc(/C=C2\SC(N3CCCCC3)=NC2=O)cc1 | 8.9 nM
O=C(NO)c1ccc(OC(F)F)cc1 | 1520 nM
Cn1c(=O)cc2c3c(c(N4CCCCC4)ccc31)C(=O)c1ccccc1-2 | 1350 nM
O=C(Nc1ccccc1N1CCOCC1)c1ccc2nc[nH]c2c1 | 852 nM
Cc1ccc(-c2cc(C(=O)N/N=C/c3c[nH]c4ccccc34)[nH]n2)cc1 | 101 nM
O=C(C[C@H]1C/C=C\C[C@H](Cc2ccc(F)cc2)C(=O)O[C@@H](c2ccccc2)CNC1=O)N[C@@H](CO)Cc1ccccc1 | 575 nM
O=C(NC(=C(Cl)Cl)S(=O)(=O)c1ccc(Cl)cc1)c1ccccc1 | 2160 nM
Cc1cccc(NC(=O)Nc2cccc(C#N)c2)n1 | 467 nM
NC1(C(=O)O)CSSC1 | 3050 nM
COC1C(O)C(C)OC(OC2C(Oc3cccc4c(O)c5c(=O)oc6ccc(C)c7c(=O)oc(c34)c5c67)OC(C)C(O)C2O)C1O (configuration not stated) | 376 nM
C[C@]1(O)CC(=O)C=C[C@H]1Nc1ccccc1 | 1970 nM
